Several values for one entry are separate records, joined by “and”; a condition that tells them apart may be missing. Identical values can stand only once.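 Cultured in 96-well plates, cells were exposed to test compound for 48 hours across five concentrations. GI50 = concentration required for 50% inhibition of growth. TGI is the concentration that stops growth completely.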
What was measured:
Assay in all cases: inhibition of tumour cell growth, NCI panel, 48 h
HT29 colon = test system: HT29 colon
IGROV1 ovarian = test system: IGROV1 ovarian
RXF 393 renal = test system: RXF 393 renal
SK-MEL-28 melanoma = test system: SK-MEL-28 melanoma
HCT-15 colon = test system: HCT-15 colon
OVCAR-3 ovarian = test system: OVCAR-3 ovarian
TK-10 renal = test system: TK-10 renal
MCF7 breast = test system: MCF7 breast
UACC-62 melanoma = test system: UACC-62 melanoma
BT-549 breast = test system: BT-549 breast

Structure (SMILES)	TGI (HT29 colon) [µM]	TGI (IGROV1 ovarian) [µM]	TGI (RXF 393 renal) [µM]	TGI (SK-MEL-28 melanoma) [µM]	GI50 (HCT-15 colon) [µM]	TGI (OVCAR-3 ovarian) [µM]	TGI (TK-10 renal) [µM]	TGI (MCF7 breast) [µM]	GI50 (UACC-62 melanoma) [µM]	TGI (UACC-62 melanoma)	GI50 (BT-549 breast) [µM]	GI50 (HT29 colon) [µM]	GI50 (IGROV1 ovarian) [µM]	GI50 (RXF 393 renal) [µM]	GI50 (SK-MEL-28 melanoma) [µM]	TGI (HCT-15 colon) [µM]	GI50 (OVCAR-3 ovarian) [µM]	GI50 (TK-10 renal) [µM]	GI50 (MCF7 breast) [µM]	TGI (BT-549 breast) [µM]
C=C1C[C@H]2C=Nc3cc(OCCCOc4cc5c(cc4OC)C(=O)N4CC(=C)C[C@H]4C=N5)c(OC)cc3C(=O)N2C1	19.7	0.0341	< 0.0292	0.0436	0.0231	0.2	< 0.177	41.3	0.000264	0.000834 µM and < 0.0123 µM	0.0126	–	–	–	–	–	–	–	–	–
O=C1NC(=S)S/C1=C\c1cn(-c2ccccc2)nc1-c1ccccc1	38.3	38.9	65.2	> 100	4.71	29	85.2	94.1	3.36	15.1 µM	5.2	12.5	13.9	22.4	9.22	23.2	11.6	8	8.31	23.7
C[C@@]1([C@H](OC(=O)c2ccccc2)C(N)=O)CO1	> 100	> 100	43.5	53.2	20.8	35.4	73.7	> 100	14.9	29.4 µM	20.8	27	19.6	18	20.6	54.9	16.4	19.8	32	48.5
O=C(O)C1=C/C(=C(/c2ccccc2)c2cc(C(=O)O)c(O)c3ccccc23)c2ccccc2C1=O	> 100	> 100	> 100	> 100	–	> 100	> 100	> 100	–	> 100 µM	–	–	–	–	–	> 100	–	–	–	> 100
CC(C)=CCc1cc2c(cc1O)C1=C(C(=O)C3=C(C1=O)S(=O)(=O)CCN3)C(C=C(C)C)O2 (stereo unspecified)	2.22	4.76	2.26	1.92	1.77	1.37	10.4	1.31	0.419	1.21 µM	2.31	0.634	0.959	0.596	0.541	4.3	0.403	4.96	0.354	4.78
CC(C)/C=C1\CCC(CN(C)C)C1=O (stereo unspecified)	4.84	11.4	1.31	5.07	–	7.97	5.96	1.8	–	32.6 µM	–	–	–	–	–	4.68	–	–	–	7.83
COc1ccc(-c2cc(-c3ccc(Nc4nc(Nc5ccccc5)nc(Nc5ccc(Cl)cc5)n4)cc3)nc(N)n2)cc1	21.8	28.2	30.7	26.5	13.5	> 50	> 50	21	12.1	> 50 µM	10	7.56	6.27	12.1	10.9	> 50	11.3	14.2	5.34	29.5
COc1cc(/C=C/C(=O)c2cccc(-n3cc(-c4cc(OC)c(OC)c(OC)c4)[nH]c3=O)c2)cc(OC)c1OC	7.03	3.79	3.41	3.39	1.89	4.32	6.68	2.44	1.87	4.01 µM	1.52	1.7	1.6	1.62	1.61	7.51	1.48	3	0.479	3.43
CN1CCN(CC(=O)N(C)c2ccc(N=C(c3ccccc3)c3c(O)[nH]c4ccc(C#N)cc34)cc2)CC1	15	15.5	3.38	4.62	3.55	14.2	24.5	13.7	4.57	14.3 µM	1.68	0.712	3.33	1.39	2.21	14.9	3.19	10.5	0.451	3.69
C#Cc1cccc(Nc2ncnc3cc(NC(=O)CCl)ccc23)c1	5.74	6.84	7.78	7.34	0.743	5.42	5.98	4.73	1.53	4.99 µM	3.23	1.06	1.43	4.03	3.67	3.42	1.37	1.86	0.961	6.99
Oc1ccc(Br)cc1C=Nc1cccc(C(F)(F)F)c1	> 100	> 100	> 100	> 100	–	> 100	> 100	> 100	–	71.1 µM	–	–	–	–	–	> 100	–	–	–	98.3
CSC1=NC(=Nc2c(C)cccc2C)C2(CCC(C(C)(C)C)CC2)N1c1ccc(Cl)cc1 (stereo unspecified)	> 100	> 100	> 100	> 100	7.42	> 100	> 100	> 100	45.3	> 100 µM	54.1	38	63.5	52.4	99.6	> 100	54.1	39.8	26.5	> 100
COc1ccc(C(O)c2cc3c(N)c(C(=O)Nc4ccc(Cl)cc4)sc3nc2C)cc1 (stereo unspecified)	8.73	28.6	11.6	57.7	0.719	4.78	43.9	17.2	1.86	32.8 µM	3.42	2.49	3.22	2.25	6.49	12.9	2	7.85	0.707	21.6
